pIC50: −log10 of the molar value.
Molecular target: Alpha-glucosidase MAL12 (Saccharomyces cerevisiae (strain ATCC 204508 / S288c), UniProt P53341)
Test: α-Glucosidase Inhibition Assay
Description: Afterwards, 10 μL of 0.5 mM p-nitrophenyl-a-d-glucopyranoside (code No. N1377 fromSigma Inc) was added to instigate the reaction. Later 30 min incubation at 37 °C, yellow coloured p-nitrophenol was formed and the absorbance was again recorded at 400 nm to see the difference. These tests were performed in triplicates and suitable dilutions of samples were made for screening.

Alpha-glucosidase MAL12, sequence (P53341 whole entry): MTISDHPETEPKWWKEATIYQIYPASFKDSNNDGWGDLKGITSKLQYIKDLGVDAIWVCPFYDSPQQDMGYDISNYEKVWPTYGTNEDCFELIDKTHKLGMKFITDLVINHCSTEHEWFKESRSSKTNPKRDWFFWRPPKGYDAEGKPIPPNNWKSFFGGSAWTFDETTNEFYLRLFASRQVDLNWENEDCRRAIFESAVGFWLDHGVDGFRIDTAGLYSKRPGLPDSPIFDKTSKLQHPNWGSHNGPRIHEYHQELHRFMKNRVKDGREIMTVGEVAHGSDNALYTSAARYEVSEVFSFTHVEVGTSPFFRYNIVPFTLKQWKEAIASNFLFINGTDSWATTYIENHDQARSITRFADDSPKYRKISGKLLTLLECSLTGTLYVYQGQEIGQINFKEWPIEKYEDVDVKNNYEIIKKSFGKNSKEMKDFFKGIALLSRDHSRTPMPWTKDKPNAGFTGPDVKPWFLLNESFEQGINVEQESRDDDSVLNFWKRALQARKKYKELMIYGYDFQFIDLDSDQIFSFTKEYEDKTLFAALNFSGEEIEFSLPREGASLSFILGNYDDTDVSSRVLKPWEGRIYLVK

Compound	pIC50
Brc1ccc(-c2nn(-c3ccccc3)cc2-c2nc(-c3ccccc3)c(-c3ccccc3)[nH]2)cc1 [3-(4-Bromophenyl)-4-(4,5-diphenyl-1H-imidazol-2-yl)-1-phenyl-1H-pyrazole (2c)]	4.92
Cc1nn(-c2ccc([N+](=O)[O-])cc2)c(C)c1-c1nc(-c2ccccc2)c(-c2ccccc2)[nH]1 [4-(4,5-Diphenyl-1H-imidazol-2-yl)-3,5-dimethyl-1-(4-nitrophenyl)-1H-pyrazole (2i)]	4.66
O=c1oc2ccccc2cc1-c1nn(-c2ccccc2)cc1-c1nc(-c2ccccc2)c(-c2ccccc2)[nH]1 [3-(4-(4,5-diphenyl-1H-imidazol-2-yl)-1-phenyl-1H-pyrazol-3-yl)-2H-chromen-2-one (2j)]	5.56
O=[N+]([O-])c1ccc(-n2cc(-c3nc(-c4ccccc4)c(-c4ccccc4)[nH]3)c(-c3ccccc3)n2)cc1 [4-(4,5-Diphenyl-1H-imidazol-2-yl)-1-(4-nitrophenyl)-3-phenyl-1H-pyrazole (2h)]	5.11
O=[N+]([O-])c1cccc(-c2nn(-c3ccccc3)cc2-c2nc(-c3ccccc3)c(-c3ccccc3)[nH]2)c1 [4-(4,5-Diphenyl-1H-imidazol-2-yl)-3-(3-nitrophenyl)-1-phenyl-1H-pyrazole (2f)]	4.89
COc1ccc(-c2nn(-c3ccccc3)cc2-c2nc(-c3ccccc3)c(-c3ccccc3)[nH]2)cc1 [4-(4,5-Diphenyl-1H-imidazol-2-yl)-3-(4-methoxyphenyl)-1-phenyl-1H-pyrazole (2e)]	4.62
O=c1oc2ccc(Br)cc2cc1-c1nn(-c2ccccc2)cc1-c1nc(-c2ccccc2)c(-c2ccccc2)[nH]1 [6-Bromo-3-(4-(4,5-diphenyl-1H-imidazol-2-yl)-1-phenyl-1Hpyrazol-3-yl)-2H-chromen 2-one (2k)]	5.53
O=[N+]([O-])c1ccc(-c2nn(-c3ccccc3)cc2-c2nc(-c3ccccc3)c(-c3ccccc3)[nH]2)cc1 [4-(4,5-Diphenyl-1H-imidazol-2-yl)-3-(4-nitrophenyl)-1-phenyl-1H-pyrazole (2d)]	4.68

The next lines start with the values.

pIC50	Compound
4.88	Clc1ccc(-c2nn(-c3ccccc3)cc2-c2nc(-c3ccccc3)c(-c3ccccc3)[nH]2)cc1 [3-(4-Chlorophenyl)-4-(4,5-diphenyl-1H-imidazol-2-yl)-1-phenyl-1H-pyrazole (2b)]
4.65	c1ccc(-c2nn(-c3ccccc3)cc2-c2nc(-c3ccccc3)c(-c3ccccc3)[nH]2)cc1 [4-(4,5-Diphenyl-1H-imidazol-2-yl)-1,3-diphenyl-1H-pyrazole (2a)]
4.76	c1ccc(-c2ccc(-c3nn(-c4ccccc4)cc3-c3nc(-c4ccccc4)c(-c4ccccc4)[nH]3)cc2)cc1 [3-([1,1'-Biphenyl]-4-yl)-4-(4,5-diphenyl-1H-imidazol-2-yl)-1-phenyl-1H-pyrazole (2g)]
